Reference: US20230159527A1, “COMPOUNDS AS BCL-2 INHIBITORS” (Fochon Pharmaceuticals, Ltd., priority 2020, published 2023)

How the values were obtained:
Assay type in all cases: cell-based
RS4;11 cells = test: Cell proliferation assay, RS4;11 cells (MTS, 72 h); settings: Homo sapiens, RS4;11 cell proliferation
Procedure: MTS testing kit was purchased from Promega. The RPMI-1640, Fetal bovine serum and Penicillin-Streptomycin were purchased from Gibco. Dimethyl sulfoxide (DMSO) was purchased from Sigma.
To investigate whether a compound is able to inhibit the activity of Bcl-2 in cells, a mechanism-based assay using RS4;11 (ATCC® CRL-1873™) cell was developed. In this assay, inhibition of Bcl-2 was detected by the inhibition of RS4;11 cells proliferation. RS4;11 cells were cultured in culture flasks to 40-80% confluence in RPMI-1640 plus 10% fetal bovine serum. Cells were collected and plated onto 96-well plates at desired cell density (30000 cells/well). Plates were incubated overnight at 37° C., with 5% CO2 to adhere. Compounds were added to the plates, and the final compound concentrations were 10000, 3333, 1111, […], 41, 14, 4.6 and 1.5 nM. Plates plated with RS4;11 cells were placed at 37° C., with 5% CO2 for 72 h. 20 μl MTS/100 μl medium mixture solution were added to each well and incubate the plates for exactly 2 hours. The reaction was stopped by adding 25 μl 10% SDS per well. Measure absorbance at 490 nm and 650 nm (reference wavelength). IC50 was calculated using GraphPad Prism 5.0.

Toledo cells = test: Cell proliferation assay, Toledo cells (MTS, 72 h); settings: Homo sapiens, Toledo cells, MTS, read-out: Toledo IC50
Outline: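 IC50 was derived from 490 nm absorbance after a 2 h MTS step. Before that, compounds at 1.5–10000 nM final (nine points) acted on Toledo cells for 72 h at 37 °C, 5% CO2. Cells were seeded at 30000/well in 10% FBS RPMI-1640 and rested 4 h before dosing.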

RS4;11-BCL-2 G101V cells = test: Cell proliferation assay, engineered RS4;11 cells stably overexpressing BCL-2 G101V (MTS, 168 h); settings: Homo sapiens, RS4-11, 168 h, read-out: RS4, 11 BCL2- G101V
Outline: (§1)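 Proliferation read-out: MTS for exactly 2 h, then absorbance at 490 nm, with IC50 derived from the fit. Before this, engineered RS4;11 lines (BCL-2 G101V, F104L; 5000 cells/well) were exposed 168 h at 37 °C to serially diluted compound, final 1.4–10000 nM.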

RS4;11-BCL-2 F104L cells = test: Cell proliferation assay, engineered RS4;11 cells stably overexpressing BCL-2 F104L (MTS, 168 h); settings: Homo sapiens, read-out: RS4, 11 BCL2-F104L
Outline: as §1

SMILES | IC50 (RS4;11 cells) [nM] | IC50 (RS4;11-BCL-2 G101V cells) [nM] | IC50 (RS4;11-BCL-2 F104L cells) [nM] | IC50 (Toledo cells) [nM]
O=C(NS(=O)(=O)c1cnc(NCC2CCSCC2)c([N+](=O)[O-])c1)c1ccc(N2CCC3(CC2)CC(N2CCOC[C@H]2c2ccccc2C2CC2)C3)cc1Oc1cnc2[nH]ccc2c1 (single isomer, unassigned) [Example A-98, (R or S)-2-((1H-pyrrolo[2,3-b]pyridin-5-yl)oxy)-4-(2-(3-(2-cyclopropyl-phenyl)morpholino)-7-azaspiro[3.5]nonan-7-yl)-N-((5-nitro-6-(((tetra-hydro-2H-thiopyran-4-yl)methyl)amino)pyridin-3-yl)sulfonyl) benzamide] | ≤ 1 | – | – | –
CC1(O)CCC(CNc2ncc(S(=O)(=O)NC(=O)c3ccc(N4CCC5(CC4)CC(N4CCC[C@H]4c4ccccc4C4CC4)C5)cc3Oc3cnc4[nH]ccc4c3)cc2[N+](=O)[O-])CC1 (stereo partly drawn) [Example A-1a, (S)-2-((1H-pyrrolo[2,3-b]pyridin-5-yl)oxy)-4-(2-(2-(2-cyclopropylphenyl)pyrrolidin-1-yl)-7-azaspiro[3.5]nonan-7-yl)-N-((6-(((4-hydroxy-4-methylcyclohexyl)methyl)amino)-5-nitropyridin-3-yl)sulfonyl)benzamide] | ≤ 1 | – | – | –
CS(C)(=O)=NC1CCC(CNc2ncc(S(=O)(=O)NC(=O)c3ccc(N4CCC5(CC4)CC(N4CCC[C@@H]4c4ccccc4C4CC4)C5)cc3Oc3cnc4[nH]ccc4c3)cc2[N+](=O)[O-])CC1 (single isomer, unassigned) [Example A-9b, (R or S)-2-((1H-pyrrolo[2,3-b]pyridin-5-yl)oxy)-4-(2-(2-(2-cyclopropyl-phenyl)pyrrolidin-1-yl)-7-azaspiro [3.5]nonan-7-yl)-N-((6-(((4-((dimethyl(oxo)-λ^6-sulfanylidene)amino)cyclohexyl)methyl)amino)-5-nitropyridin-3-yl)sulfonyl)benzamide] | ≤ 1 | – | – | –
CCc1ccccc1[C@@H]1CCCN1C1CC2(CCN(c3ccc(C(=O)NS(=O)(=O)c4cnc(NCC5CCC(C)(O)CC5)c([N+](=O)[O-])c4)c(Oc4cnc5[nH]ccc5c4)c3)CC2)C1 (stereo partly drawn) [Example A-8a, (S)-2-((1H-pyrrolo[2,3-b]pyridin-5-yl)oxy)-4-(2-(2-(2-ethylphenyl)pyrrolidin-1-yl)-7-azaspiro[3.5]nonan-7-yl)-N-((6-(((4-hydroxy-4-methylcyclohexyl)methyl)amino)-5-nitropyridin-3-yl)sulfonyl) benzamide] | ≤ 1 | – | – | –
CC(C)c1ccccc1[C@@H]1CCCN1C1CC2(CCN(c3ccc(C(=O)NS(=O)(=O)c4cnc(NCC5CCC(C)(O)CC5)c([N+](=O)[O-])c4)c(Oc4cnc5[nH]ccc5c4)c3)CC2)C1 (stereo partly drawn) [Example A-6a, (5)-2-((1H-pyrrolo[2,3-b]pyridin-5-yl)oxy)-N-((6-(((4-hydroxy-4-methylcyclohexyl)methyl)amino)-5-nitropyridin-3-yl)sulfonyl)-4-(2-(2-(2-isopropylphenyl)pyrrolidin-1-yl)-7-azaspiro[3.5]nonan-7-yl) benzamide] | ≤ 1 | – | – | –
O=C(NS(=O)(=O)c1cnc(NCC2CCOCC2)c([N+](=O)[O-])c1)c1ccc(N2CCC3(CC2)CC(N2CCNC[C@H]2c2ccccc2C2CC2)C3)cc1Oc1cnc2[nH]ccc2c1 (single isomer, unassigned) [Example A-36a, (R or S)-2-((1H-pyrrolo[2,3-b]pyridin-5-yl)oxy)-4-(2-(2-(2-cyclopropyl-phenyl)piperazin-1-yl)-7-azaspiro [3.5]nonan-7-yl)-N-((5-nitro-6-(((tetrahydro-2H-pyran-4-yl)methyl)amino)pyridin-3-yl)sulfonyl) benzamide] | ≤ 1 | – | – | –
CCOc1nc2[nH]cc(F)c2cc1Oc1cc(N2CCC3(CC2)CN([C@H]2CCC[C@H]2c2ccccc2C(C)C)C3)ccc1C(=O)NS(=O)(=O)c1cnc(NC[C@H]2CC[C@](C)(O)CC2)c([N+](=O)[O-])c1 (relative stereo) [Example A-153, 2-((6-ethoxy-3-fluoro-1H-pyrrolo[2,3-b]pyridin-5-yl)oxy)-N-((6-(((1r,4r)-4-hydroxy-4-methylcyclohexyl)methyl)amino)-5-nitropyridin-3-yl) sulfonyl)-4-(2-((1S,2S or 1R,2R)-2-(2-isopropylphenyl)cyclo-pentyl)-2,7-diazaspiro[3.5]nonan-7-yl) benzamide] | – | 25 | 6 | 1

The next lines start with results.

IC50 (RS4;11 cells) [nM] | IC50 (RS4;11-BCL-2 G101V cells) [nM] | IC50 (RS4;11-BCL-2 F104L cells) [nM] | SMILES | IC50 (Toledo cells) [nM]
– | 1 | 11 | CC(C)c1ccccc1[C@@H]1CCCN1C1CC2(CCN(c3ccc(C(=O)NS(=O)(=O)c4cc5c(c([N+](=O)[O-])c4)N[C@@H]([C@H]4CC[C@](C)(O)CC4)CO5)c(Oc4cc5cc[nH]c5nc4OCCN4CCC4)c3)CC2)C1 (single isomer, unassigned) [Example D-61, 2-((6-(2-(azetidin-l-yl)ethoxy)-1H-pyrrolo[2,3-b]pyridin-5-yl)oxy)-N-(((S)-3-((1r,4S)-4-hydroxy-4-methylcyclohexyl)-5-nitro-3,4-dihydro-2H-benzo[b][1,4]oxazin-7-yl)sulfonyl)-4-(2-((R or S)-2-(2-isopropylphenyl)pyrrolidin-1-yl)-7-azaspiro[3.5]nonan-7-yl)benzamide] | 1
– | 1 | 22 | COCCOc1nc2[nH]ccc2cc1Oc1cc(N2CCC3(CC2)CC(N2CCC[C@H]2c2ccccc2C(C)C)C3)ccc1C(=O)NS(=O)(=O)c1cc2c(c([N+](=O)[O-])c1)N[C@@H]([C@H]1CC[C@](C)(O)CC1)CO2 (single isomer, unassigned) [Example D-17, N-(((S)-3-((1r,4S)-4-hydroxy-4-methylcyclohexyl)-5-nitro-3,4-dihydro-2H-benzo[b][1,4]oxazin-7-yl)sulfonyl)-4-(2-((R or S)-2-(2-isopropylphenyl)pyrrolidin-1-yl)-7-azaspiro[3.5]nonan-7-yl)-2-((6-(2-methoxyethoxy)-1H-pyrrolo[2,3-b]pyridin-5-yl)oxy) benzamide] | 1
– | 1 | 1 | CC(C)c1ccccc1[C@@H]1CCCN1C1CC2(CCN(c3ccc(C(=O)NS(=O)(=O)c4cc5c(c([N+](=O)[O-])c4)N[C@@H]([C@H]4CC[C@](C)(O)CC4)CO5)c(Oc4cc5cc[nH]c5nc4OC4CCN(C)CC4)c3)CC2)C1 (single isomer, unassigned) [Example D-229, N-(((S)-3-((1r,4S)-4-hydroxy-4-methylcyclohexyl)-5-nitro-3,4-dihydro-2H-benzo[b][1,4]oxazin-7-yl)sulfonyl)-4-(2-((R or S)-2-(2-isopropylphenyl)pyrrolidin-1-yl)-7-azaspiro[3.5]nonan-7-yl)-2-((6-((1-methylpiperidin-4-yl)oxy)-1H-pyrrolo[2,3-b]pyridin-5-yl)oxy)benzamide] | 1
– | 6 | 1 | CC(C)c1ccccc1[C@@H]1CCCN1C1CC2(CCN(c3ccc(C(=O)NS(=O)(=O)c4cc5c(c([N+](=O)[O-])c4)N[C@@H]([C@H]4CC[C@](C)(O)CC4)CO5)c(Oc4cc5cc[nH]c5nc4OC[C@@H]4COCCO4)c3)CC2)C1 (single isomer, unassigned) [Example D-251, 2-((6-(((S)-1,4-dioxan-2-yl)methoxy)-1H-pyrrolo[2,3-b]pyridin-5-yl)oxy)-N-(((S)-3-((1r,4S)-4-hydroxy-4-methylcyclohexyl)-5-nitro-3,4-dihydro-2H-benzo[b][1,4]oxazin-7-yl)sulfonyl)-4-(2-((R or S)-2-(2-isopropylphenyl)pyrrolidin-1-yl)-7-azaspiro[3.5]nonan-7-yl)benzamide] | 1
– | 5 | 1 | CC(C)c1ccccc1[C@@H]1CCC[C@@H]1N1CC2(CCN(c3ccc(C(=O)NS(=O)(=O)c4ccc(NC[C@H]5CC[C@](C)(O)CC5)c([N+](=O)[O-])c4)c(Oc4cc5c(F)c[nH]c5nc4F)c3)CC2)C1 (single isomer, unassigned) [Example D-90, 2-((3,6-difluoro-1H-pyrrolo[2,3-b]pyridin-5-yl)oxy)-N-((4-((1r,4r)-4-hydroxy-4-methylcyclohexyl)methyl)amino)-3-nitrophenyl) sulfonyl)-4-(2-((1S,2S or 1R,2R)-2-(2-isopropylphenyl) cyclopentyl)-2,7-diazaspiro[3.5] nonan-7-yl)benzamide] | 1
– | 1 | 20 | CCOc1nc2[nH]ccc2cc1Oc1cc(N2CCC3(CC2)CC(N2CCC[C@H]2c2ccccc2C(C)C)C3)ccc1C(=O)NS(=O)(=O)c1cc2c(c([N+](=O)[O-])c1)N[C@@H]([C@H]1CC[C@](C)(O)CC1)CO2 (single isomer, unassigned) [Example D-65, 2-((6-ethoxy-1H-pyrrolo[2,3-b]pyridin-5-yl)oxy)-N-(((5)-3-((1r,4S)-4-hydroxy-4-methylcyclohexyl)-5-nitro-3,4-dihydro-2H-benzo[b] [1,4]oxazin-7-yl)sulfonyl)-4-(2-((R or S)-2-(2-isopropylphenyl)pyrrolidin-1-yl)-7-azaspiro[3.5]nonan-7-yl)benzamide] | 1
